Measurements published in patent US6696484B2, “Method and compositions for regulation of 5-alpha reductase activity” (University of Chicago Office of Technology and Intellectual …, priority 1997, dated 2004).

Tests used:
LNCaP 104-S cells = test: Proliferation of LNCaP 104-S cells in culture; format: cell-based, human; conditions: 0.1 nM R1881 vs androgen-depleted media
Protocol: Androgen-dependent LNCaP 104-S (passage 37) and androgen-independent LNCaP 104-R±sublines were isolated as described previously (Kokontis et al., 1994). The characteristics of these cells in vitro were confirmed before injection into nude mice. […] LNCaP 104-R2 cells grew in charcoal-treated media without additional androgen. Their proliferation was not stimulated but was repressed by 0.1 nM R1881. LNCaP 104-S cells were maintained in DMEM (Gibco) supplemented with 1 nM 5α-DHT and 10% FBS (Summit Biotechnology) and LNCaP 104-R2 cells were maintained in DMEM supplemented with 10% FBS treated with charcoal to remove steroid (Kokontis et al., 1994). PC-3 and MCF-7 cell lines were obtained from the American Type Culture Collection (Rockville, Md.), and were maintained in DMEM supplemented with 10% FBS.

LNCaP 104-S tumors = test: Growth of LNCaP 104-S tumors in nude mice; format: in vivo, BALB/c athymic (nude) mice; conditions: TP implanted at the time of castration; from 299±27 (SE) mm^3; ±SE
LNCaP 104-R2 tumors [1] = test: Growth of LNCaP 104-R2 tumors in castrated male nude mice; format: in vivo, BALB/c athymic (nude) mice
[2] = Biological effects of TP implants in nude mice (serum testosterone, seminal vesicle weight, body weight); format: in vivo, BALB/c athymic (nude) mice; conditions: 4th week after androgen implantation
Source text: (§1) BALB/c athymic (nude) male (LNCaP, PC-3 cell lines) and female (MCF-7 cell line) mice (Taconic Inc., Germantown, N.Y.), 5 to 7 weeks-old, were used. Mice were housed in a pathogen-free environment, four to five mice per cage. Cages (filter top), bedding and water were autoclaved before use. Feed was irradiated Pico Lab Mouse Chow 20 5058 (Purina). All procedures involving animals were approved by the University of Chicago Institutional Animal Care and Use Committee. For the tumor growth studies, 10^6 cells in 0.25 ml of culture medium were mixed with 0.25 ml of Matrigel™ (Collaborative Research, Bedford, Mass.) and were injected subcutaneously into one or both flanks of the mice as described previously (Liao et al., 1995). Tumor size was measured weekly and tumor volume was calculated using the formula L×W×H×0.52 (Janek and Hartman, 1975). Bilateral orchiectomy and subcutaneous implantation or removal of pellets were performed under Metofane anesthesia. Blood samples were obtained by heart puncture or from the orbital plexus while mice were under anesthesia and analyzed for testosterone levels by radioimmunoassay or PSA levels by dual-site reactive enzymatic immunoassay (Tandem®-E PSA, Hybritech, San Diego, Calif.). […] All numerical data are expressed as the average of the values obtained from 4 to 6 tumors and the standard error. […]

LNCaP 104-R2 tumors [3] = test: Expression of AR, c-myc and PSA by LNCaP 104-R2 tumors (ribonuclease protection assay, serum PSA immunoassay); format: in vivo, BALB/c athymic (nude) mice; conditions: after 1 week of TP treatment
Source text: as §1

PC-3 tumors = test: Growth of PC-3 tumors in nude mice; format: in vivo, BALB/c athymic (nude) mice
MCF-7 tumors = test: Growth of MCF-7 tumors in female nude mice; format: in vivo, BALB/c athymic (nude) mice

SMILES | increase of proliferation of LNCaP 104-S cells (LNCaP 104-S cells) | LNCaP 104-S tumor size 4 weeks after castration with TP implant (LNCaP 104-S tumors) | LNCaP 104-R2 tumor size within 4 weeks after removal of TP (LNCaP 104-R2 tumors [1]; TP implanted at 4th week, removed at 7th week, regrew from 96±26 (SE) mm^3) | LNCaP 104-R2 tumor size four weeks after TP implantation (LNCaP 104-R2 tumors [1]; TP implanted at 7th week, from 884±64 (SE) mm^3) | body weight of nude mice [2] | increase of seminal vesicle weight ([2]; vs castrates without TP) | increase of serum PSA (LNCaP 104-R2 tumors [3]) | increase of the level of PSA mRNA in tumor samples (LNCaP 104-R2 tumors [3]) | effect on growth of AR negative PC-3 tumors (PC-3 tumors) | effect on growth of MCF-7 tumors (MCF-7 tumors)
C[C@]1(O)CC[C@H]2[C@@H]3CCC4=CC(=O)CCC4=C3C=C[C@@]21C [R1881, 17 β-hydroxy-17 α-methyl-estra-4,9,11-trien-3-one] | 10-13 fold |  |  |  |  |  |  |  |  | 
CCC(=O)O[C@H]1CC[C@H]2[C@@H]3CCC4=CC(=O)CC[C@]4(C)[C@H]3CC[C@]12C [TP, testosterone propionate] |  | 965±166 mm^3 | 641±157 mm^3 | 208±33 mm^3 | no loss | about 10 times | more than 10 fold | more than 10 fold | did not affect | not affected
